How the values were obtained:
Rho kinase 2 (ROCK2) = Rho kinase 2 (ROCK2) (Homo sapiens, UniProt O75116); assay: In vitro Rho kinase inhibitory activity assay (ADP-Glo), ROCK2; type: biochemical; details: Ki by Cheng-Prusoff from IC50; 10 μM ATP; range of activity
Method: (§1) The effectiveness of compounds of the invention to inhibit Rho kinase activity can be determined in a […] assay containing 40 mM Tris pH7.5, 20 mM MgC2 0.1 mg/ml BSA, 50 μM DTT and 2.5 μM peptide substrate (Myelin Basic Protein) using an ADP-Glo kit (Promega). Compounds were dissolved in DMSO such that the final concentration of DMSO was 1% in the assay. All reactions/incubations are performed at 25° C. Compound (2 ul) and either Rho kinase 1 or 2 (4 μl) were mixed and incubated for 30 mins. Reactions were initiated by addition of ATP (4 μl) such that the final concentration of ATP in the assay was 10 μM. After a 1 hour incubation 10 μl of ADP-Glo Reagent was added and after a further 45 minute incubation 20 ul of Kinase Detection Buffer was added and the mixture incubated for a further 30 minutes. The luminescent signal was measured on a luminometer. […] Compounds were tested in dose-response format and the inhibition of kinase activity was calculated at each concentration of compound. To determine the IC50 (concentration of compound required to inhibit 50% of the enzyme activity) data were fit to a plot of % inhibition vs Log10 compound concentration using a sigmoidal fit with a variable slope and fixing the maximum to 100% and the minimum to 0%. To determine the Ki values the Cheng-Prusoff equation was utilized (Ki=IC50/(1+[S]/Km)

Rho kinase 1 (ROCK1) = Rho kinase 1 (ROCK1) (Homo sapiens, UniProt Q13464); assay: In vitro Rho kinase inhibitory activity assay (ADP-Glo), ROCK1; type: biochemical; details: Ki by Cheng-Prusoff from IC50; 10 μM ATP; range of activity
Method: as §1

Rho kinase 1 (ROCK1), sequence (Q13464 whole entry): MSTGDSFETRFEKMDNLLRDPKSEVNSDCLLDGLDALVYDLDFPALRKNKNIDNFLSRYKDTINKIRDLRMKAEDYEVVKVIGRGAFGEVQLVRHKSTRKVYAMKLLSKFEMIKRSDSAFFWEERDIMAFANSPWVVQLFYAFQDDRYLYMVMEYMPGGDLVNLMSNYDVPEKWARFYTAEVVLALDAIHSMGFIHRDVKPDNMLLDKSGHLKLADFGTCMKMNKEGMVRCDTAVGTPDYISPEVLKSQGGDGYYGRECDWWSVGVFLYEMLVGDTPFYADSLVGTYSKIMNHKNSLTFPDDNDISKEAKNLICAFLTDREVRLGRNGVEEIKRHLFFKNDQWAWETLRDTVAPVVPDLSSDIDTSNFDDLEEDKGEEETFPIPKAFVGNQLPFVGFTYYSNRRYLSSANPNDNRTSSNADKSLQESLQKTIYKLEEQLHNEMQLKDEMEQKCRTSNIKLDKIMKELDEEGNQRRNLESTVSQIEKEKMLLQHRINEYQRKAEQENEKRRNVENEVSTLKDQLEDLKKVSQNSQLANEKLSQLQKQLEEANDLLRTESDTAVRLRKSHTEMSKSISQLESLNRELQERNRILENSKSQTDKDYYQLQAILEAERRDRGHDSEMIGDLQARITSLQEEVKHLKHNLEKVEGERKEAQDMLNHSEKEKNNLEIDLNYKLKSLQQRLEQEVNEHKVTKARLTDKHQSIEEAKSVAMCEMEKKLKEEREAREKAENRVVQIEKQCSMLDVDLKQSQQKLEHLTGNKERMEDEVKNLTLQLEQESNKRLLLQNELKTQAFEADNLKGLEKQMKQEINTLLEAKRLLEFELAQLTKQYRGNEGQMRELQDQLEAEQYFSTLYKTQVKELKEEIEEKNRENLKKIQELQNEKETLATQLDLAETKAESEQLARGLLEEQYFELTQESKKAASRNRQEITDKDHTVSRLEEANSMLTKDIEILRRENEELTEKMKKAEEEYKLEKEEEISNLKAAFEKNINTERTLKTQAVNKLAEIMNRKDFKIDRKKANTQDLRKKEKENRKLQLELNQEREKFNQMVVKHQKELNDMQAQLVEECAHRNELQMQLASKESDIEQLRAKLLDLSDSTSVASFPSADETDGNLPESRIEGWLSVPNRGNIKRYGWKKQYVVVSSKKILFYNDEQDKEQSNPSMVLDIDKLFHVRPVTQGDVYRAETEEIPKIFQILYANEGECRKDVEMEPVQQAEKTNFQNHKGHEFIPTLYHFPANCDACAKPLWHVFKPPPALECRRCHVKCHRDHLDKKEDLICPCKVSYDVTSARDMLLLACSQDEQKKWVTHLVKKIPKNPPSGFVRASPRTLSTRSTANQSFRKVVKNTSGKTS
Rho kinase 2 (ROCK2), sequence (O75116 whole entry): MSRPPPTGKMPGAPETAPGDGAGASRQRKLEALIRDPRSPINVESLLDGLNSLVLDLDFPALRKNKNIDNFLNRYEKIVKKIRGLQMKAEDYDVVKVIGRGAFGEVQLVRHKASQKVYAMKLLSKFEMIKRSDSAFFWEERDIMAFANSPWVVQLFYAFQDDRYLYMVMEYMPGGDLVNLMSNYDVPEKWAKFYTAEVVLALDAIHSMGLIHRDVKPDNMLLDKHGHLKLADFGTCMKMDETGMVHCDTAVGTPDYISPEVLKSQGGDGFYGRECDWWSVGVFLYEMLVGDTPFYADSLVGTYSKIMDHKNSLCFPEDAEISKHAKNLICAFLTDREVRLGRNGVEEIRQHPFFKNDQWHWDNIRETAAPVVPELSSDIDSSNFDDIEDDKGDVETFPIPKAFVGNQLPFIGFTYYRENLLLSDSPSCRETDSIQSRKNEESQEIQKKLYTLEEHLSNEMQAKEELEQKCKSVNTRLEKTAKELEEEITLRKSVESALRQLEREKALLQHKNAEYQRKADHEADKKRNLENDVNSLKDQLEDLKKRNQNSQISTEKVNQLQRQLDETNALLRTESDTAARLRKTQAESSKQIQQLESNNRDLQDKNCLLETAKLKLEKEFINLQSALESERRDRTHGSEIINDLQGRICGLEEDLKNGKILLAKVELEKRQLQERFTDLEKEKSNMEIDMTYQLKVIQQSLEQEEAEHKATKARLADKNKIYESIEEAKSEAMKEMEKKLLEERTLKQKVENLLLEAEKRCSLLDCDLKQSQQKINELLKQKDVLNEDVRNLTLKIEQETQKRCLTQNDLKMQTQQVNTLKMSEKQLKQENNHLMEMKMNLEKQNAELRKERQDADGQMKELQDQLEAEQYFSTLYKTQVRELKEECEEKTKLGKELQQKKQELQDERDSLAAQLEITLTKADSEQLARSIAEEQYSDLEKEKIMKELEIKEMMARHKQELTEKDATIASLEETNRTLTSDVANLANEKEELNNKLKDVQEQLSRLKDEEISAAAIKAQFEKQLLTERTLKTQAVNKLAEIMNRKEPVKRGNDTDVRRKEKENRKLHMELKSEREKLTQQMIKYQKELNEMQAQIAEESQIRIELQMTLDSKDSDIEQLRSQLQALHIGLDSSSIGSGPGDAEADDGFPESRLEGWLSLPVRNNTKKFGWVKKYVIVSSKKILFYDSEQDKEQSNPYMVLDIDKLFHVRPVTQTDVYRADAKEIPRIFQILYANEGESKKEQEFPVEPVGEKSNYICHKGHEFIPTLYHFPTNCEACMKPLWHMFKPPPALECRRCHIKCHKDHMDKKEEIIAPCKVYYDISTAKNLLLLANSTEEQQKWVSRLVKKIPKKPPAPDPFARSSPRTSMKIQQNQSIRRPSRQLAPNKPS

SMILES | Ki (Rho kinase 2 (ROCK2)) [nM] | Ki (Rho kinase 1 (ROCK1)) [nM]
Cc1c[nH]c2nccc(Oc3ccc(C4CCCN4)cc3)c12 (racemic) [Example 18, 3-methyl-4-(4-(pyrrolidin-2-yl)phenoxy)-1H-pyrrolo[2,3-b]pyridine] | 5 to 50 | 5 to 50
Cc1c[nH]c2nccc(Oc3ccc(C4CCCN4)cc3)c12 (single isomer, unassigned) [Example 18A, 3-methyl-4-(4-(pyrrolidin-2-yl)phenoxy)-1H-pyrrolo[2,3-b]pyridine] | < 5 | 5 to 50
Cc1c[nH]c2nccc(Oc3ccc(C4CCCN4)cc3)c12 (single isomer, unassigned) [Example 18B, 3-methyl-4-(4-(pyrrolidin-2-yl)phenoxy)-1H-pyrrolo[2,3-b]pyridine] | 5 to 50 | 
Cc1c[nH]c2nccc(Oc3ccc4c(c3)CNCC4)c12 [Example 1, 7-((3-Methyl-1H-pyrrolo[2,3-b]pyridin-4-yl)oxy)-1,2,3,4-tetrahydroisoquinoline] | < 5 | < 5
Cc1c[nH]c2nccc(Oc3ccc4c(c3)CNC4)c12 [Example 2, 4-(isoindolin-5-yloxy)-3-methyl-1H-pyrrolo[2,3-b]pyridine] | < 5 | < 5
CNCc1ccc(Oc2ccnc3[nH]cc(C)c23)cc1 [Example 3, N-methyl-1-(4-((3-methyl-1H-pyrrolo[2,3-b]pyridin-4-yl)oxy)phenyl)methanamine] | 5 to 50 | 5 to 50
NCCc1ccc(Oc2ccnc3[nH]ccc23)cc1 [Example 4, 2-(4-((1H-pyrrolo[2,3-b]pyridin-4-yl)oxy)phenyl)ethanamine] | 5 to 50 | 5 to 50
Cc1c[nH]c2nccc(Oc3ccc4c(c3)CCNCC4)c12 [Example 5, 7-((3-methyl-1H-pyrrolo[2,3-b]pyridin-4-yl)oxy)-2,3,4,5-tetrahydro-1H-benzo[d]azepine] | < 5 | < 5
Cc1c[nH]c2ncnc(Oc3ccc4c(c3)CNCC4)c12 [Example 6, 7-((5-methyl-7H-pyrrolo[2,3-d]pyrimidin-4-yl)oxy)-1,2,3,4-tetrahydroisoquinoline] | 5 to 50 | 5 to 50
Cc1c[nH]c2ncnc(Oc3ccc(C4CCNC4)cc3)c12 (centres unmarked) [Example 7, 5-methyl-4-(4-(pyrrolidin-3-yl)phenoxy)-7H-pyrrolo[2,3-d]pyrimidine] | > 50 | > 50
Cc1c[nH]c2ncnc(Oc3ccc(CCN)cc3)c12 [Example 8, 2-(4-((5-methyl-7H-pyrrolo[2,3-d]pyrimidin-4-yl)oxy)phenyl)ethanamine] | > 50 | > 50
Cc1c[nH]c2ncnc(Oc3ccc(CN)cc3)c12 [Example 9, (4-((5-methyl-7H-pyrrolo[2,3-d]pyrimidin-4-yl)oxy)phenyl)methanamine] | > 50 | > 50
Cc1c[nH]c2nccc(Oc3ccc4c(c3)CN(C)CC4)c12 [Example 10, 2-methyl-7-((3-methyl-1H-pyrrolo[2,3-b]pyridin-4-yl)oxy)-1,2,3,4-tetrahydroisoquinoline] | < 5 | < 5
Cc1c[nH]c2nccc(Oc3ccc4c(c3)CCNC4)c12 [Example 11, 6-((3-methyl-1H-pyrrolo[2,3-b]pyridin-4-yl)oxy)-1,2,3,4-tetrahydroisoquinoline] | 5 to 50 | 5 to 50
Cc1c[nH]c2nccc(Oc3ccc(CN)cc3F)c12 [Example 12, (3-fluoro-4-((3-methyl-1H-pyrrolo[2,3-b]pyridin-4-yl)oxy)phenyl)methanamine] | < 5 | < 5
Cc1c[nH]c2nccc(Oc3ccc(C4CNCCN4)cc3)c12 (centres unmarked) [Example 13, 3-methyl-4-(4-(piperazin-2-yl)phenoxy)-1H-pyrrolo[2,3-b]pyridine] | 5 to 50 | 5 to 50
Cc1c[nH]c2nccc(Oc3ccc4c(c3)CC(N)C4)c12 (centres unmarked) [Example 14, 5-((3-methyl-1H-pyrrolo[2,3-b]pyridin-4-yl)oxy)-2,3-dihydro-1H-inden-2-amine] | < 5 | 5 to 50
Cc1c[nH]c2nccc(Oc3ccc4c(c3)CCCNC4)c12 [Example 15, 7-((3-methyl-1H-pyrrolo[2,3-b]pyridin-4-yl)oxy)-2,3,4,5-tetrahydro-1H-benzo[c]azepine] | 5 to 50 | 5 to 50
Cc1c[nH]c2nccc(Oc3ccc4c(c3)CNCCC4)c12 [Example 16, 8-((3-methyl-1H-pyrrolo[2,3-b]pyridin-4-yl)oxy)-2,3,4,5-tetrahydro-1H-benzo[c]azepine] | < 5 | 5 to 50
Cc1c[nH]c2nccc(Oc3ccc(C4CNC4)cc3)c12 [Example 17, 4-(4-(azetidin-3-yl)phenoxy)-3-methyl-1H-pyrrolo[2,3-b]pyridine] | < 5 | 5 to 50

SMILES | Ki (Rho kinase 2 (ROCK2)) [nM] | Ki (Rho kinase 1 (ROCK1)) [nM]
Cc1c[nH]c2nccc(Oc3ccc(CCN)cc3)c12 [Example 19, 2-(4-((3-methyl-1H-pyrrolo[2,3-b]pyridin-4-yl)oxy)phenyl)ethanamine] | < 5 | < 5
Cc1c[nH]c2nccc(Oc3ccc(C4CCNC4)cc3)c12 (centres unmarked) [Example 20, 3-methyl-4-(4-(pyrrolidin-3-yl)phenoxy)-1H-pyrrolo[2,3-b]pyridine] | < 5 | < 5
Cc1c[nH]c2nccc(Oc3ccc(CN)cc3)c12 [Example 21, (4-((3-methyl-1H-pyrrolo[2,3-b]pyridin-4-yl)oxy)phenyl)methanamine] | < 5 | 5 to 50
Cc1c[nH]c2nccc(Oc3ccc(CCN4CCCC4)cc3)c12 [Example 22, 3-methyl-4-(4-(2-(pyrrolidin-1-yl)ethyl)phenoxy)-1H-pyrrolo[2,3-b]pyridine] | 5 to 50 | 5 to 50
Cc1c[nH]c2nccc(Oc3ccc(C(C)N)cc3F)c12 (centres unmarked) [Example 23, 1-(3-fluoro-4-((3-methyl-1H-pyrrolo[2,3-b]pyridin-4-yl)oxy)phenyl)ethanamine] | < 5 | < 5
Cc1c[nH]c2nccc(Oc3ccc(C(C)N)cc3)c12 (centres unmarked) [Example 24, 1-(4-((3-methyl-1H-pyrrolo[2,3-b]pyridin-4-yl)oxy)phenyl)ethanamine] | < 5 | 5 to 50
Cc1c[nH]c2nccc(Oc3ccc(C(C)(C)N)cc3)c12 [Example 25, 2-(4-((3-methyl-1H-pyrrolo[2,3-b]pyridin-4-yl)oxy)phenyl)propan-2-amine] | < 5 | 5 to 50
Cc1c[nH]c2nccc(Oc3ccc4c(c3)CCCC4N)c12 (centres unmarked) [Example 26] | 5 to 50 | 5 to 50
Cc1c[nH]c2nccc(Oc3ccc(CN4CCOCC4)cc3)c12 [Example 27, 4-(4-((3-Methyl-1H-pyrrolo[2,3-b]pyridin-4-yl)oxy)benzyl)morpholine] | > 50 | > 50
Cc1c[nH]c2nccc(Oc3ccc(CNC4CCOCC4)cc3)c12 [Example 28, N-(4-((3-methyl-1H-pyrrolo[2,3-b]pyridin-4-yl)oxy)benzyl)tetrahydro-2H-pyran-4-amine] | 5 to 50 | 5 to 50
Cc1c[nH]c2nccc(Oc3ccc(CN(C)C)cc3)c12 [Example 29, N,N-dimethyl-1-(4-((3-methyl-1H-pyrrolo[2,3-b]pyridin-4-yl)oxy)phenyl)methanamine] | 5 to 50 | 5 to 50
Cc1c[nH]c2nccc(Oc3ccc(CNC4CCN(C)CC4)cc3)c12 [Example 30, 1-methyl-N-(4-((3-methyl-1H-pyrrolo[2,3-b]pyridin-4-yl)oxy)benzyl)piperidin-4-amine] | 5 to 50 | 5 to 50
Cc1c[nH]c2nccc(Oc3ccc(CNCCO)cc3)c12 [Example 31, 2-((4-((3-methyl-1H-pyrrolo[2,3-b]pyridin-4-yl)oxy)benzyl)amino)ethanol] | 5 to 50 | 5 to 50
Cc1c[nH]c2nccc(Oc3ccc(CN4CCC5(CCNC5)C4)cc3)c12 (centres unmarked) [Example 32, 4-(4-(2,7-diazaspiro[4.4]nonan-2-ylmethyl)phenoxy)-3-methyl-1H-pyrrolo[2,3-b]pyridine] | 5 to 50 | 5 to 50
Cc1c[nH]c2nccc(Oc3ccc(CN4CCN(C)CC4)cc3)c12 [Example 33, 3-methyl-4-(4-((4-methylpiperazin-1-yl)methyl)phenoxy)-1H-pyrrolo[2,3-b]pyridine] | 5 to 50 | > 50
N#Cc1c[nH]c2nccc(Oc3ccc4c(c3)CNCC4)c12 [Example 34, 4-((1,2,3,4-Tetrahydroisoquinolin-7-yl)oxy)-1H-pyrrolo[2,3-b]pyridine-3-carbonitrile] | < 5 | < 5
NCc1cc(F)c(Oc2ccnc3[nH]ccc23)c(F)c1 [Example 35, (4-((1H-Pyrrolo[2,3-b]pyridin-4-yl)oxy)-3,5-difluorophenyl)methanamine] | < 5 | 5 to 50
Cc1c[nH]c2nccc(Oc3ccc(C[C@H](N)CO)cc3F)c12 [Example 36, (S)-2-amino-3-(3-fluoro-4-((3-methyl-1H-pyrrolo[2,3-b]pyridin-4-yl)oxy)phenyl)propan-1-ol] | < 5 | < 5
Cc1c[nH]c2nccc(Oc3ccc(C[C@H](N)CO)cc3)c12 [Example 37, (S)-2-amino-3-(4-((3-methyl-1H-pyrrolo[2,3-b]pyridin-4-yl)oxy)phenyl)propan-1-ol] | < 5 | < 5
